What was measured:
[1] = Relative concentration of LOX and its metabolites in hepatic portal vein plasma 10 min post-LOX (HRMS); format: in vivo, Male ICR mice; details: hepatic portal vein plasma 10 min after LOX 20 mg/kg oral, n = 3; for Relative concentration in plasma (DEX average % of area, VH corn oil = 100): DEX 40 mg/kg i.p. 3 days; for Relative concentration in plasma (KTC average % of area, VH 10% ethanol = 100): KTC 60 mg/kg i.p. single dose
Method: (§1) The acclimatized animals were divided into eight groups, with each group containing 3 mice: groups I and II, vehicle (corn oil); groups III and IV, DEX-treated; groups V and VI, vehicle (10% Ethanol); and groups VII and VIII, KTC-treated group. […] Then, animals were fasted for 12 hours with free access to water before starting the experiment. After fasting, LOX (20 mg/kg) was administered orally to groups I, II, III, and IV.
Similarly, blood from groups II, IV, VI, and VIII was collected from the hepatic portal vein 10 min post-LOX administration to identify metabolites of LOX and to analyze drug–drug interactions. Plasma from these samples was prepared as explained above. Then, 300 µL of ACN having 0.1% formic acid and 5 µM of the IS were mixed with 100 µL of each plasma sample. […] Supernatants were transferred into tubes and dried using a Labconco Speed Vac (Labconco Corporation, Kansas City, MO, USA). […] Each supernatant was transferred into an LCMS vial, and 5 µL were injected into a high-resolution mass spectrometer (HRMS).
HRMS coupled with ultrahigh performance liquid chromatography (UHPLC) was used to detect hydroxy-LOX and other metabolites of LOX. The UHPLC system, Dionex Ultimate 3000 (Dionex Softron GmbH, Germering, Germany) consisted of an HPG-3200SD Standard binary pump, a WPS 3000 TRS analytical autosampler, and a TCC-3000 SD column compartment. In this experiment, the HRMS was a Q Exactive Focus quadrupole-Orbitrap MS (Thermo Fisher Scientific, Bremen, Germany) equipped with a heated electrospray ionization (HESI-II) ion probe.
LOX was detected as a deprotonated ion [M-H]^− at m/z 245.1175 in negative ion mode. Therefore, negative ion mode was used with the following optimized conditions for LOX: spray voltage of 2.5 kV, capillary temperature of 320 °C, auxiliary gas at 12 aux unit, aux gas heater temperature of 200 °C, sheath gas at 35 aux units, and S-lens RF level of 50. LOX and its metabolites were separated using a 150 mm × 2.1 mm, 2.6-μm reverse-phase liquid chromatography column, Kinetex® C18 column (Phenomenex, CA, USA) at 40 °C. Furthermore, MS-grade solvents were used as the mobile phase in gradient elution mode: 0.1% aqueous formic acid as Solvent A and 0.1% formic acid in ACN as Solvent B. The flow was set to 0.22 mL/min with a gradient condition of Solvent B as 10% between 0 and 0.5 min, 10–50% between 0.5 and 21.5 min, 50–95% between 21.5 and 22.5 min, 95% between 22.5 and 25.5 min, 95–10% between 25.5 and 25.6 min, and 10% between 25.6 and 30 min.

[2] = Plasma pharmacokinetics of LOX, cis-LOX and trans-LOX after oral LOX in mice pretreated with DEX, KTC or vehicle; format: in vivo, Male ICR mice; details: mouse plasma, LOX 20 mg/kg oral, mean ± SE, n = 3
Method: as §1, with “After fasting, LOX (20 mg/kg) was administered orally to groups I, II, III, and IV.” left out
After the oral administration of LOX, blood from groups I, III, V, and VII was collected from the tail at 0, 5, 10, 15, 30, 60, 120, and 240 min post-administration and placed into sodium heparin-containing tubes. After the last blood collection, the mice were sacrificed by cervical dislocation. Plasma was then prepared by centrifuging the blood at 4000× g for 15 min at 4 °C and stored at −80 °C until analysis. For analysis, each sample was prepared by mixing plasma (10 µL) and 90 µL of ACN containing 0.1% formic acid and 5 µM of tolbutamide as an internal standard (IS). […] Finally, 10 µL of sample supernatant was injected into the LC-MS/MS system. The PK parameters (the maximum plasma concentration [Cmax], time to reach the maximum plasma concentration [Tmax], elimination half-life [T1/2], and area under the plasma concentrations [AUC]) were analyzed by WinNonlin software (Version 2.1, Scientific Consulting, Louisville, KY, USA).
A Shimadzu Prominence UFLC system (Kyoto, Japan) connected to a TSQ vantage triple quadrupole mass spectrometer with a HESI-II spray source incorporated with a DGU-20A5 degasser, an LC-20AD pump, a SIL-20A autosampler, and a CTO-20A column oven was used for the analyses. A shim-pack GIS C18 column (150 × 3.0 mm, […]) was used to separate analytes in the samples. Mobile phases A and B were composed of water with formic acid and ACN with 0.1% formic acid, respectively, and the flow rate was 0.50 mL/min at 40 °C. The gradient conditions were as follows: 20% of B between 0 and 0.25 min, 20–80% of B between 0.25 and 9.75 min, 80–20% of B between 9.75 and 10 min, and 20% of B between 10 and 13 min. The MS was operated under the following conditions: electrospray ionization in negative mode at 3.0 kV, capillary temperature at 350 °C, vaporizer temperature at 300 °C, sheath gas pressure at 35 Arb, and auxiliary gas pressure at 10 Arb. Finally, Xcalibur software (Thermo Fisher Scientific Inc., Waltham, MA, USA) was used for data analysis.

CYP2D = assay: CYP activity in liver S9 of treated mice: dextromethorphan O-demethylation; format: in vivo, Male ICR mice; details: liver S9, dextromethorphan 5 µM
Method: (§2) Twenty-four hours after the last treatment, the liver was excised and homogenized with three volumes of ice-cold 0.1 M potassium phosphate buffer (pH 7.4). The supernatant fraction was then separated as the S9 fraction from the mixture by centrifugation at 9000× g at 4 °C and stored at −80 °C until use.
(§3) To characterize the CYP activities in the harvested livers, phenacetin O-demethylation (using 80 µM of phenacetin) for CYP1A, dextromethorphan O-demethylation (using 5 µM of dextromethorphan) for CYP2D, and midazolam 1’-hydroxylation (using 5 µM of midazolam) for CYP3A were used as cocktail probe reactions. The level of protein in the S9 fraction was determined by Bradford assay. The cocktail probes were then incubated with 10 µL of each S9 fraction, potassium phosphate buffer (pH 7.4), and an NADPH generating system (NGS) in a final volume of 100 µL. After incubation for 30 min at 37 °C, ice-cold ACN containing 0.1% formic acid and IS (5 µM) was added to stop the reaction. Samples were then vortexed and centrifuged at 13,000× g for 10 min at 4 °C. Finally, the supernatants were transferred to LC-MS/MS vials for analysis.

CYP3A = assay: CYP activity in liver S9 of treated mice: midazolam 1'-hydroxylation; details: liver S9, KTC 60 mg/kg i.p. once, midazolam 5 µM, n = 3
Method: as §2, §3

CYP1A = details: liver S9, phenacetin 80 µM
Method: To characterize the CYP activities in the harvested livers, phenacetin O-demethylation (using 80 µM of phenacetin) for CYP1A, dextromethorphan O-demethylation (using 5 µM of dextromethorphan) for CYP2D, and midazolam 1’-hydroxylation (using 5 µM of midazolam) for CYP3A were used as cocktail probe reactions [21, 22]. The level of protein in the S9 fraction was determined by Bradford assay [23]. The cocktail probes were then incubated with 10 µL of each S9 fraction, potassium phosphate buffer (pH 7.4), and an NADPH generating system (NGS) in a final volume of 100 µL. After incubation for 30 min at 37 °C, ice-cold ACN containing 0.1% formic acid and IS (5 µM) was added to stop the reaction. Samples were then vortexed and centrifuged at 13,000× g for 10 min at 4 °C. Finally, the supernatants were transferred to LC-MS/MS vials for analysis.

[3] = pretreated DEX 40 mg/kg i.p. 3 days
[4] = pretreated KTC 60 mg/kg i.p. single dose
[5] = pretreated VH (10% ethanol) i.p. single dose
[6] = pretreated VH (corn oil) i.p. 3 days

Compound: CC(C(=O)O)c1ccc(CC2CCCC2O)cc1 (stereo not drawn) [cis-LOX]
- Relative concentration in plasma (DEX average % of area, VH corn oil = 100) [1]: 61.9 ± 3.9%
- Relative concentration in plasma (DEX average % of area, VH corn oil = 100) ([1]; listed as M2): 61.91%
- Relative concentration in plasma (KTC average % of area, VH 10% ethanol = 100) [1]: 173.1 ± 5.8%
- Relative concentration in plasma (KTC average % of area, VH 10% ethanol = 100) ([1]; listed as M2): 173.08%
- AUC(0–60) [2, 3]: 29.9 ± 4.4 µg·min/mL
- AUC(0–∞) [2, 3]: 31.5 ± 4.4 µg·min/mL
- Cmax [2, 3]: 1100 ± 200 ng/mL
- T1/2 (elimination half-life) [2, 3]: 13.9 ± 0.6 min
- Tmax [2, 3]: 10.0 ± 1.0 min
- AUC(0–60) [2, 4]: 49.0 ± 5.9 µg·min/mL
- AUC(0–∞) [2, 4]: 51.9 ± 6.1 µg·min/mL
- Cmax [2, 4]: 1600 ± 100 ng/mL
- T1/2 (elimination half-life) [2, 4]: 13.4 ± 0.6 min
- Tmax [2, 4]: 11.6 ± 0.8 min
- AUC(0–60) [2, 5]: 36.0 ± 3.9 µg·min/mL
- AUC(0–∞) [2, 5]: 38.4 ± 4.4 µg·min/mL
- Cmax [2, 5]: 1200 ± 100 ng/mL
- T1/2 (elimination half-life) [2, 5]: 13.3 ± 0.9 min
- Tmax [2, 5]: 13.3 ± 0.8 min
- AUC(0–60) [2, 6]: 72.7 ± 12.4 µg·min/mL
- AUC(0–∞) [2, 6]: 75.8 ± 12.8 µg·min/mL
- Cmax [2, 6]: 2400 ± 300 ng/mL
- T1/2 (elimination half-life) [2, 6]: 12.3 ± 0.3 min
- Tmax [2, 6]: 10.4 ± 0.7 min

Compound: CC(=O)N1CCN(c2ccc(OCC3COC(Cn4ccnc4)(c4ccc(Cl)cc4Cl)O3)cc2)CC1 (stereo not shown) [KTC, ketoconazole]
- Metabolic activity of other CYP enzymes (CYP2D, dextromethorphan O-demethylation), VH vs treated (CYP2D): unaffected
- Effect on the metabolism of CYP3A4 substrate (midazolam) compared to the VH group (CYP3A): significantly decreased

Compound: C[C@@H]1C[C@H]2[C@@H]3CCC4=CC(=O)C=C[C@]4(C)[C@@]3(F)[C@@H](O)C[C@]2(C)[C@@]1(O)C(=O)CO [DEX, dexamethasone]
- Metabolic activity of other CYP enzymes (CYP1A, phenacetin O-demethylation), VH vs treated (CYP1A): unaffected
- Metabolic activity of other CYP enzymes (CYP2D, dextromethorphan O-demethylation), VH vs treated (CYP2D): unaffected
